Test results as given in article PMC10383271.

Experiments:
[1] = target: human serum albumin (HSA) (Homo sapiens, UniProt P02768); experiment: Fluorescence quenching titration of HSA; conditions: for Kd: logKb; for ΔG°: one value per compound, temperature not given; for ΔH° / ΔS°: van't Hoff
[2] = target: T1, COX-2 (Homo sapiens, UniProt P35354); experiment: COX-2 inhibition, Cayman's COX Colorimetric Inhibitor Screening Assay Kit; conditions: for Selectivity Index (SI): COX-2 IC50/COX-1 IC50
T1 sequence (P35354 18-604): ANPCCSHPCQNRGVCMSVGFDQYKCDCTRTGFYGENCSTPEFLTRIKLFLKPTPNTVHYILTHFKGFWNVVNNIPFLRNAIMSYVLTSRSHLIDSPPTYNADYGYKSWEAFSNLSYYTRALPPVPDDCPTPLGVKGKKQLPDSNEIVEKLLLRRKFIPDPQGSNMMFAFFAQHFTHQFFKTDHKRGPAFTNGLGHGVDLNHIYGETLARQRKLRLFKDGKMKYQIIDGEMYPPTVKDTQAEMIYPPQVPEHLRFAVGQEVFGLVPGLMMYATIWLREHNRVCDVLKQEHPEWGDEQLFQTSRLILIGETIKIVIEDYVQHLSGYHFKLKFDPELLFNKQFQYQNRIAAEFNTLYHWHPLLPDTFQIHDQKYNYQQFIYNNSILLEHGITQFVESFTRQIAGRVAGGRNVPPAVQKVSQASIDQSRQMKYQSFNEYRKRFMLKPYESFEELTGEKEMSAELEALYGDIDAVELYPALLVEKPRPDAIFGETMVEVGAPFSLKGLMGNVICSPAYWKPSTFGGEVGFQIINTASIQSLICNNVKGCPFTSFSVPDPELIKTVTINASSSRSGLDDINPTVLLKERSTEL

Sequence of human serum albumin (HSA) (P02768 25-609): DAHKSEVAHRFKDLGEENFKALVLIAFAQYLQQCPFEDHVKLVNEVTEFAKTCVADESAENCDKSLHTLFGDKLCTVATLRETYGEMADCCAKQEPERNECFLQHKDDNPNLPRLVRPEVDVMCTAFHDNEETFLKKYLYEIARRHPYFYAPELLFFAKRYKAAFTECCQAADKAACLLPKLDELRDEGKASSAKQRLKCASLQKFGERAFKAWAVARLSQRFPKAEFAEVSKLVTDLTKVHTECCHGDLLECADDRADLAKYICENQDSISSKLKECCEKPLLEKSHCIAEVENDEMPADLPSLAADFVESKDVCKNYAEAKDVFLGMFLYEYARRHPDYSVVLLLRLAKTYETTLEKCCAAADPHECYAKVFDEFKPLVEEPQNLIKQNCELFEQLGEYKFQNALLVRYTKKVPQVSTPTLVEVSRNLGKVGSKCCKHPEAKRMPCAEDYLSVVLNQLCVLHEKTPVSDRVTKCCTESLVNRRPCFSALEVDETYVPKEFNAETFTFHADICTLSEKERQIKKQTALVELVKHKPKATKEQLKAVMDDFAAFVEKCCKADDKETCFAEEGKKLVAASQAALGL

| SMILES | Ksv ([1]; T 297 K) | kq ([1]; T 297 K) | n (number of binding sites) ([1]; T 297 K) | Ksv ([1]; T 303 K) | kq ([1]; T 303 K) | n (number of binding sites) ([1]; T 303 K) | Ksv ([1]; T 308 K) | kq ([1]; T 308 K) | n (number of binding sites) ([1]; T 308 K) | Kd ([1]; T 297 K) | Kd ([1]; T 303 K) | Kd ([1]; T 308 K) | ΔG° [1] | ΔH° [1] | ΔS° [1] | melting point | IC50 [2] | Selectivity Index (SI) [2] |
| --- | --- | --- | --- | --- | --- | --- | --- | --- | --- | --- | --- | --- | --- | --- | --- | --- | --- | --- |
| Cc1c2c(OCC(=O)N/N=C/c3ccccc3)nn(C)c(=O)c2c(C)n1-c1ccccc1 [Compound 5b, N-[(Z/E)-benzylideneamino]-2-(3,5,7-trimethyl-4-oxo-6-phenyl-pyrrolo[3,4-d]pyridazin-1-yl)oxy-acetamide] | 5.55 ± 0.33 × 10^5 dm^3·mol^−1 | 5.55 × 10^13 dm^3·mol^−1·s^−1 | 1.15 ± 0.06 | 5.26 ± 0.28 × 10^5 dm^3·mol^−1 | 5.26 × 10^13 dm^3·mol^−1·s^−1 | 1.10 ± 0.10 | 4.75 ± 0.23 × 10^5 dm^3·mol^−1 | 4.75 × 10^13 dm^3·mol^−1·s^−1 | 1.02 ± 0.05 | 0.263 µM | 0.49 µM | 1.45 µM | -9.001 kcal/mol | -27.77 kcal/mol | −264.38 J·mol^−1·K^−1 | 274 to 275 °C | 22.7 ± 1.2 µM | 0.25 |
| Cc1c2c(OCC(=O)N/N=C/c3ccccc3)nn(C)c(=O)c2c(C)n1-c1cccc(Cl)c1 [Compound 5c, N-[(Z/E)-benzylideneamino]-2-[6-(3-chlorophenyl)-3,5,7-trimethyl-4-oxo-pyrrolo[3,4-d]pyridazin-1-yl]oxyacetamide] | 4.33± 0.25 × 10^5 dm^3·mol^−1 | 4.33 × 10^13 dm^3·mol^−1·s^−1 | 0.92 ± 0.06 | 3.86 ± 0.13 × 10^5 dm^3·mol^−1 | 3.86 × 10^13 dm^3·mol^−1·s^−1 | 0.90 ± 0.02 | 2.87 ± 0.12 × 10^5 dm^3·mol^−1 | 2.87 × 10^13 dm^3·mol^−1·s^−1 | 0.85 ± 0.04 | 6.17 µM | 8.91 µM | 26.3 µM | -7.163 kcal/mol | -23.45 kcal/mol | −229.47 J·mol^−1·K^−1 | 273 to 275 °C | 23.6 ± 2.5 µM | 0.23 |
| CCCCn1c(C)c2c(OCC(=O)N/N=C/c3ccccc3)nn(C)c(=O)c2c1C [Compound 5a, N-[(Z/E)-benzylideneamino]-2-(6-butyl-3,5,7-trimethyl-4-oxo-pyrrolo[3,4-d]pyridazin-1-yl)oxy-acetamide] | 1.87 ± 0.04 × 10^5 dm^3·mol^−1 | 1.87 × 10^13 dm^3·mol^−1·s^−1 | 0.97 ± 0.04 | 1.71 ± 0.03 × 10^5 dm^3·mol^−1 | 1.71 × 10^13 dm^3·mol^−1·s^−1 | 0.95 ± 0.02 | 1.41 ± 0.03 × 10^5 dm^3·mol^−1 | 1.41 × 10^13 dm^3·mol^−1·s^−1 | 0.92 ± 0.02 | 7.94 µM | 11.2 µM | 20.9 µM | -6.979 kcal/mol | -16.14 kcal/mol | −129.11 J·mol^−1·K^−1 | 210 to 212 °C | 17.2 ± 1.4 µM | 0.21 |
